Source: ChEMBL document CHEMBL1201862, “PubChem BioAssay data set” (2004)
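Cells were grown in 96-well plates and exposed to each compound for 48 hours at five concentrations; endpoints were interpolated linearly between bracketing concentrations, or set to the highest concentration if not reached. At the GI50, growth is halved.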 Calls of active or inactive are those of the source. Cut-off read from the data, not from the text of the source: active = GI50 up to about 1.1 µM and inactive = higher.

Experiments:
Assay in all cases: inhibition of tumour cell growth, NCI panel, 48 h
LOX IMVI = test system: LOX IMVI
SK-MEL-2 = test system: SK-MEL-2
SK-MEL-28 = test system: SK-MEL-28
UACC-62 = test system: UACC-62
SW-620 = test system: SW-620
786-0 = test system: 786-0
HCC 2998 = test system: HCC 2998
Malme-3M = test system: Malme-3M
NCI-H23 = test system: NCI-H23
SF-295 = test system: SF-295
SNB-19 = test system: SNB-19
CCRF-CEM = test system: CCRF-CEM
HT-29 = test system: HT-29
SF-268 = test system: SF-268
TK-10 = test system: TK-10
SNB-75 = test system: SNB-75
MOLT-4 = test system: MOLT-4
OVCAR-4 = test system: OVCAR-4
PC-3 = test system: PC-3
MCF7 = test system: MCF7

Compound | GI50 (LOX IMVI) | GI50 (SK-MEL-2) | GI50 (SK-MEL-28) | GI50 (UACC-62) | GI50 (SW-620) | GI50 (786-0) | GI50 (HCC 2998) | GI50 (Malme-3M) | GI50 (NCI-H23) | GI50 (SF-295) | GI50 (SNB-19) | GI50 (CCRF-CEM) | GI50 (HT-29) | GI50 (SF-268) | GI50 (TK-10) | GI50 (SNB-75) | GI50 (MOLT-4) | GI50 (OVCAR-4) | GI50 (PC-3) | GI50 (MCF7)
CC(C)(C)N/N=C(\C(=O)Nc1cccc(Cl)c1)C1C(=O)Nc2ccccc2[S+]1[O-] (stereo not drawn) | > 100 µM (inactive) | > 100 µM (inactive) | > 100 µM (inactive) | > 100 µM (inactive) | > 100 µM (inactive) | > 100 µM (inactive) | > 100 µM (inactive) | 21.6 µM (inactive) | > 100 µM (inactive) | > 100 µM (inactive) | > 100 µM (inactive) | > 100 µM (inactive) | > 100 µM (inactive) | > 100 µM (inactive) | > 100 µM (inactive) | > 100 µM (inactive) | > 100 µM (inactive) | > 100 µM (inactive) | – | –
CN1CC[C@]23c4c5ccc(O)c4O[C@H]2C(O)CC[C@@]3(O)[C@H]1C5 (stereo partly drawn) | > 100 µM (inactive) | > 100 µM (inactive) | > 100 µM (inactive) | > 100 µM (inactive) | > 100 µM (inactive) | > 100 µM (inactive) | – | > 100 µM (inactive) | > 100 µM (inactive) | > 100 µM (inactive) | > 100 µM (inactive) | – | > 100 µM (inactive) | > 100 µM (inactive) | > 100 µM (inactive) | – | > 100 µM (inactive) | > 100 µM (inactive) | > 100 µM (inactive) | > 100 µM (inactive)
Fc1ccc(NCn2nc(COc3ccccc3Cl)n(/N=C/c3ccc(-c4ccc(Cl)cc4Cl)o3)c2=S)cc1Cl | 23.9 µM (inactive) | 25 µM (inactive) | > 100 µM (inactive) | – | 36.1 µM (inactive) | 27 µM (inactive) | – | – | 27.4 µM (inactive) | 33 µM (inactive) | – | 25.5 µM (inactive) | > 100 µM (inactive) | 79.1 µM (inactive) | 31.8 µM (inactive) | – | 16.1 µM (inactive) | 53.2 µM (inactive) | 38.5 µM (inactive) | 26.7 µM (inactive)
O=c1/c(=C/c2ccccc2[N+](=O)[O-])sc2nnc(-c3cccnc3)n12 | > 100 µM (inactive) | > 100 µM (inactive) | > 100 µM (inactive) | > 100 µM (inactive) | 7.03 µM (inactive) | > 100 µM (inactive) | > 100 µM (inactive) | > 100 µM (inactive) | > 100 µM (inactive) | > 100 µM (inactive) | 17.7 µM (inactive) | 55.8 µM (inactive) | > 100 µM (inactive) | > 100 µM (inactive) | > 100 µM (inactive) | > 100 µM (inactive) | 63.5 µM (inactive) | > 100 µM (inactive) | – | –
COC(=O)[C@@H]1C=C[C@@H](C#N)n2c(=O)n(-c3ccccc3)c(=O)n21 | 10.6 µM (inactive) | – | 17 µM (inactive) | 36.6 µM (inactive) | 41.9 µM (inactive) | 25.2 µM (inactive) | 33.3 µM (inactive) | – | 36.9 µM (inactive) | 23.8 µM (inactive) | > 100 µM (inactive) | 25.9 µM (inactive) | 31.1 µM (inactive) | 27.9 µM (inactive) | 82.2 µM (inactive) | 26.7 µM (inactive) | 34.7 µM (inactive) | 36.3 µM (inactive) | – | 19.5 µM (inactive)
O=C(O)COc1ccc(C(=O)/C(SS/C(C(=O)c2ccc(OCC(=O)O)c(Cl)c2Cl)=C2\C=C(c3ccc(F)cc3)SS2)=C2/C=C(c3ccc(F)cc3)SS2)c(Cl)c1Cl | 3.12 µM (inactive) | 15.6 µM (inactive) | 19.2 µM (inactive) | 8.24 µM (inactive) | 15.6 µM (inactive) | 27.9 µM (inactive) | 25.6 µM (inactive) | 40.8 µM (inactive) | 13.2 µM (inactive) | 20.8 µM (inactive) | 15 µM (inactive) | 4.95 µM (inactive) | 26.9 µM (inactive) | 6.9 µM (inactive) | 37.8 µM (inactive) | 17.2 µM (inactive) | 8.67 µM (inactive) | 13.4 µM (inactive) | – | 36.8 µM (inactive)
[O-][n+]1c(-c2ccccc2)oc2ccccc21 | 3.07 µM (inactive) | 17.7 µM (inactive) | 18.1 µM (inactive) | 8.69 µM (inactive) | 16.6 µM (inactive) | 22.6 µM (inactive) | 19.1 µM (inactive) | 13 µM (inactive) | 11.3 µM (inactive) | 14 µM (inactive) | 24.7 µM (inactive) | > 62.1 µM (inactive) | 21.4 µM (inactive) | 26.9 µM (inactive) | 26.6 µM (inactive) | 16.7 µM (inactive) | > 69.7 µM (inactive) | 24.5 µM (inactive) | – | –
CN(C)c1nncc2[nH]cnc12 | – | > 100 µM (inactive) | > 100 µM (inactive) | > 100 µM (inactive) | > 100 µM (inactive) | > 100 µM (inactive) | – | – | > 100 µM (inactive) | > 100 µM (inactive) | > 100 µM (inactive) | > 100 µM (inactive) | > 100 µM (inactive) | > 100 µM (inactive) | > 100 µM (inactive) | > 100 µM (inactive) | > 100 µM (inactive) | – | > 100 µM (inactive) | > 100 µM (inactive)
[O-][S+]1c2ccccc2N=C(c2ccc3ccccc3c2)CC1C1=CC=CCC1 (stereo not drawn) | 15.4 µM (inactive) | 19.1 µM (inactive) | 18.2 µM (inactive) | 15.7 µM (inactive) | 18.4 µM (inactive) | 16 µM (inactive) | 13.1 µM (inactive) | 27.4 µM (inactive) | 14.6 µM (inactive) | 17.7 µM (inactive) | > 10 µM (inactive) | 7.19 µM (inactive) | 16.5 µM (inactive) | 25.8 µM (inactive) | 22.2 µM (inactive) | 17.9 µM (inactive) | 13.7 µM (inactive) | > 10 µM (inactive) | – | –
OCC1OC(Oc2cc(O)cc(/C=C\c3ccc(O)cc3)c2)C(O)C(O)C1O (stereo not drawn) | > 100 µM (inactive) | > 100 µM (inactive) | > 100 µM (inactive) | > 100 µM (inactive) | > 100 µM (inactive) | > 100 µM (inactive) | – | – | – | > 100 µM (inactive) | > 100 µM (inactive) | > 100 µM (inactive) | > 100 µM (inactive) | – | > 100 µM (inactive) | > 100 µM (inactive) | > 100 µM (inactive) | > 100 µM (inactive) | > 100 µM (inactive) | > 100 µM (inactive)
CN1C(=O)CC2(C)c3cc(O)cc(Br)c3N(C)C12 (stereo not drawn) | > 100 µM (inactive) | > 100 µM (inactive) | > 100 µM (inactive) | 81.5 µM (inactive) | > 100 µM (inactive) | > 100 µM (inactive) | > 100 µM (inactive) | > 100 µM (inactive) | > 100 µM (inactive) | > 100 µM (inactive) | > 100 µM (inactive) | > 100 µM (inactive) | > 100 µM (inactive) | > 100 µM (inactive) | > 100 µM (inactive) | 30.8 µM (inactive) | > 100 µM (inactive) | > 10 µM (inactive) | – | –
CC(=O)c1nc2ccccc2n1C(C)C(=O)c1ccccc1 (stereo not drawn) | 34.3 µM (inactive) | – | > 100 µM (inactive) | 33 µM (inactive) | 43.7 µM (inactive) | 36.9 µM (inactive) | – | 50.2 µM (inactive) | > 100 µM (inactive) | 54.6 µM (inactive) | 77.6 µM (inactive) | 39.6 µM (inactive) | > 100 µM (inactive) | 26.5 µM (inactive) | 91.8 µM (inactive) | > 100 µM (inactive) | 34.9 µM (inactive) | 47.4 µM (inactive) | 72.1 µM (inactive) | 22.2 µM (inactive)
CC(=O)Nc1ccccc1S(=O)(=O)c1ccccc1 | > 100 µM (inactive) | > 100 µM (inactive) | > 100 µM (inactive) | > 100 µM (inactive) | > 100 µM (inactive) | > 100 µM (inactive) | > 100 µM (inactive) | > 100 µM (inactive) | > 100 µM (inactive) | > 100 µM (inactive) | > 100 µM (inactive) | > 100 µM (inactive) | > 100 µM (inactive) | > 100 µM (inactive) | > 100 µM (inactive) | > 100 µM (inactive) | > 100 µM (inactive) | > 100 µM (inactive) | – | –
O=C(CC1C(=O)Nc2ccccc2S1(=O)=O)Nc1cc(Cl)ccc1Cl (stereo not drawn) | 5.37 µM (inactive) | 14.9 µM (inactive) | 16.6 µM (inactive) | 14.6 µM (inactive) | 19.4 µM (inactive) | 8.55 µM (inactive) | 20.5 µM (inactive) | 17.9 µM (inactive) | 17.9 µM (inactive) | 17.5 µM (inactive) | 15.5 µM (inactive) | 17.8 µM (inactive) | 17.4 µM (inactive) | 10.8 µM (inactive) | 20.1 µM (inactive) | 14.6 µM (inactive) | 6.01 µM (inactive) | 16.8 µM (inactive) | – | –
CSC[S+]([O-])C[C@H](CO)NC(=O)/C=C/c1c(C)[nH]c(=O)[nH]c1=O (stereo partly drawn) | 1.11 µM (active) | 1.08 µM (active) | 0.767 µM (active) | 1.01 µM (active) | 2.21 µM (inactive) | 1.74 µM (inactive) | 1.45 µM (inactive) | 0.492 µM (active) | 0.644 µM (active) | 0.457 µM (active) | 0.52 µM (active) | 1.19 µM (inactive) | 1.85 µM (inactive) | 0.277 µM (active) | 4.02 µM (inactive) | 0.236 µM (active) | 1.92 µM (inactive) | 0.251 µM (active) | – | 1.8 µM (inactive)
